# Experiments:
# lymphoblasts (K562) = details: cited from earlier work
# [1] = test system: epithelial-like hepatocellular carcinoma cells (HepG2); details: cited from earlier work
# [2] = test system: human gastric cancer cells (SGC-7901); details: cited from earlier work
# P. mirabilis = assay: In vitro glass “bladder” model of catheter encrustation; assay type: cell-based, Proteus mirabilis
# Experimental: A Foley catheter is inserted aseptically into the vessel through an opening at the base, the balloon is inflated, and the catheter is attached to a catheter drainage bag (Fig. 7A). The “bladder” is supplied with sterile AUM at a physiologically relevant flow rate via peristaltic pump from a media reservoir, the “kidney” (Fig. 7A). An initial bacterial inoculum of 10^8 CFU of P. mirabilis was added to the AUM in the “bladder” inner chamber to model robust bacteriuria, followed by initiation of flow (Fig. 7B). The performance of urease-dampening metabolites was evaluated as a reduction in 1) effluent AUM pH over the 24 h study period, and 2) crystalline biofilm formation and ion precipitation on catheter segments 24 h post inoculation. Urease-dampening metabolites and AHA were introduced into the system by direct dissolution into the AUM reservoirs. For each study, both positive (untreated P. mirabilis) and negative (untreated P. mirabilis urease negative mutant) controls were included. Effluent urine samples were collected at 0, 3, 6, 9, 12 and 24 h post inoculation. This preclinical model of catheter encrustation was modified to assess whether prophylactic administration of urease-dampening metabolites increases efficacy of antimicrobials against catheter biofilms, as outlined in Fig. 9A. Each experiment was performed in triplicate. Full details of experimental set up, sample collection, and processing are provided below and in Supplementary Materials.
# A previously described glass “bladder” model was used, in which a 500 mL water-jacketed glass vessel is maintained at 37 °C via a circulating water bath, a Foley catheter is inserted and inflated, and artificial urine medium (AUM) is supplied into the “bladder” at a constant flow rate (0.75-1.0 mL/min) through a peristaltic pump[55],[56]. For consistency with the in vitro urease activity assays and the physiologic range of urea in healthy human urine, AUM was supplemented with 500 mM urea[57]. Urease-dampening metabolites of interest were directly dissolved in AUM 500 mM urea, adjusted to a pH of 5.8, and filter sterilized via a 0.2μm filter. “Bladders” were inoculated with 10^8 CFUs of P. mirabilis. Samples were collected from the catheter port at 0, 3, 6, 9, 12, and 24 hours to monitor pH and bacterial CFUs. Catheters segments were processed for CFUs, crystal violet staining of biofilm biomass, and ion composition at 24 h. Full details are provided in the Supplementary Methods.
# 236 and the segments were air dried for 15 min. Catheter segments were stained with 1.0 ml 0.1%
# 237 crystal violet for 10 min, washed by gentle dunking in 1X phosphate-buffered saline (PBS) to
# 238 remove excess stain, and solubilized in a microcentrifuge tube containing 750μL of 1% SDS
# 239 95% ethanol and vortexed for 5 minutes. Crystal violet absorbance (OD570) was measured in a
# 240 BioTek Synergy H1 microplate reader and blanked using cell-free control wells for each biofilm
# 243 Catheter segment biofilm viability. Catheter segments were washed by gentle dunking in 1X
# 244 phosphate-buffered saline (PBS) to remove any remaining planktonic bacteria and residual AUM
# 245 from the catheter lumen. Catheter segments were then placed in a microcentrifuge tube
# 246 containing 1mL of 1X PBS and vortexed for 5 minutes to solubilize the biofilm. Samples
# 247 underwent serial 10-fold dilutions and were spiral plated (Eddy Jet 2; Neutec Group Inc.,
# 248 Farmingdale, NY) onto low-salt LB agar for enumeration of CFU using a ProtoCOL 3 automated
# 249 colony counter (Synbiosis).
# 251 Catheter segment elemental composition. Catheter segments were placed in a microcentrifuge
# [3] = cited from earlier work
# [4] = 24 h, alone: 5 mM AHA, 25 mM histamine, 25 mM 4-imidazole acetate
smiles,measurement,setting,value
"CC(=O)NO [AHA, acetohydroxamic acid, reference compound]",decrease in viability of K562,lymphoblasts (K562),60-70%
same,decrease in viability of HepG2,[1],60-70%
same,decrease in viability of SGC-7901,[2],60-70%
same,crystalline biofilm formation,"P. mirabilis; 24 h, alone: 1.25 mM AHA, 12.5 mM histamine, 12.5 mM 4-imidazole acetate",no impact on crystalline biofilm formation
same,Magnesium and phosphorus precipitation on catheter segments (ICP-OES),P. mirabilis; [4],"reduced, although the reduction was not statistically significant"
same,catheter biofilm biomass (crystal violet) vs untreated P. mirabilis,P. mirabilis; [4],significantly reduced biofilm biomass
same,pH of AUM collected from “bladders” over 24 h,"P. mirabilis; alone, lower concentrations",failed to restrict pH
same,pH of AUM collected from “bladders” over 24 h,"P. mirabilis; alone: 5 mM AHA, 25 mM histamine, 25 mM 4-imidazole acetate, nucleation point ~ pH 8",never surpassed the nucleation point
same,P. mirabilis CFUs in effluent over time,P. mirabilis; tested individually,no meaningful differences between CFUs over time
same,urease-mediated pH increase,"P. mirabilis; tested individually, dose response",perturbed urease-mediated pH increase in a dose-dependent manner
same,efficacy in clinical trials,[3],showed efficacy in preventing urinary stone formation
same,severe side effects,[3]; in vivo,"teratogenesis, hemolytic anemia, psychoneurological and muscular symptoms"

# Reference: publication PMC12583827, “Harnessing microbial-derived metabolites in the urinary tract to prevent infection induced catheter encrustation” (Nature Communications, 2025)
